Legend:
[1] = system: Z310 cells
[2] = system: LRP1; test: LRP1 knockdown efficiency in Z310 cells by Western blot; format: cell-based, rat; details: 10nM siRNA, LRP1 to β-actin ratio
[3] = target: LRP1 (Rattus norvegicus, UniProt G3V928); test: Aβ efflux through Z310 monolayer with LRP1 inhibition; format: cell-based; details: mean±SD
[4] = system: Aβ; details: ref Kanekiyo and Bu, 2009; cited from earlier work
[5] = LRP1 knockdown by siRNA plus 10mg/ml IVIG, p<0.001, n=3

LRP1 (Rattus norvegicus, UniProt G3V928), sequence (G3V928 20-4545): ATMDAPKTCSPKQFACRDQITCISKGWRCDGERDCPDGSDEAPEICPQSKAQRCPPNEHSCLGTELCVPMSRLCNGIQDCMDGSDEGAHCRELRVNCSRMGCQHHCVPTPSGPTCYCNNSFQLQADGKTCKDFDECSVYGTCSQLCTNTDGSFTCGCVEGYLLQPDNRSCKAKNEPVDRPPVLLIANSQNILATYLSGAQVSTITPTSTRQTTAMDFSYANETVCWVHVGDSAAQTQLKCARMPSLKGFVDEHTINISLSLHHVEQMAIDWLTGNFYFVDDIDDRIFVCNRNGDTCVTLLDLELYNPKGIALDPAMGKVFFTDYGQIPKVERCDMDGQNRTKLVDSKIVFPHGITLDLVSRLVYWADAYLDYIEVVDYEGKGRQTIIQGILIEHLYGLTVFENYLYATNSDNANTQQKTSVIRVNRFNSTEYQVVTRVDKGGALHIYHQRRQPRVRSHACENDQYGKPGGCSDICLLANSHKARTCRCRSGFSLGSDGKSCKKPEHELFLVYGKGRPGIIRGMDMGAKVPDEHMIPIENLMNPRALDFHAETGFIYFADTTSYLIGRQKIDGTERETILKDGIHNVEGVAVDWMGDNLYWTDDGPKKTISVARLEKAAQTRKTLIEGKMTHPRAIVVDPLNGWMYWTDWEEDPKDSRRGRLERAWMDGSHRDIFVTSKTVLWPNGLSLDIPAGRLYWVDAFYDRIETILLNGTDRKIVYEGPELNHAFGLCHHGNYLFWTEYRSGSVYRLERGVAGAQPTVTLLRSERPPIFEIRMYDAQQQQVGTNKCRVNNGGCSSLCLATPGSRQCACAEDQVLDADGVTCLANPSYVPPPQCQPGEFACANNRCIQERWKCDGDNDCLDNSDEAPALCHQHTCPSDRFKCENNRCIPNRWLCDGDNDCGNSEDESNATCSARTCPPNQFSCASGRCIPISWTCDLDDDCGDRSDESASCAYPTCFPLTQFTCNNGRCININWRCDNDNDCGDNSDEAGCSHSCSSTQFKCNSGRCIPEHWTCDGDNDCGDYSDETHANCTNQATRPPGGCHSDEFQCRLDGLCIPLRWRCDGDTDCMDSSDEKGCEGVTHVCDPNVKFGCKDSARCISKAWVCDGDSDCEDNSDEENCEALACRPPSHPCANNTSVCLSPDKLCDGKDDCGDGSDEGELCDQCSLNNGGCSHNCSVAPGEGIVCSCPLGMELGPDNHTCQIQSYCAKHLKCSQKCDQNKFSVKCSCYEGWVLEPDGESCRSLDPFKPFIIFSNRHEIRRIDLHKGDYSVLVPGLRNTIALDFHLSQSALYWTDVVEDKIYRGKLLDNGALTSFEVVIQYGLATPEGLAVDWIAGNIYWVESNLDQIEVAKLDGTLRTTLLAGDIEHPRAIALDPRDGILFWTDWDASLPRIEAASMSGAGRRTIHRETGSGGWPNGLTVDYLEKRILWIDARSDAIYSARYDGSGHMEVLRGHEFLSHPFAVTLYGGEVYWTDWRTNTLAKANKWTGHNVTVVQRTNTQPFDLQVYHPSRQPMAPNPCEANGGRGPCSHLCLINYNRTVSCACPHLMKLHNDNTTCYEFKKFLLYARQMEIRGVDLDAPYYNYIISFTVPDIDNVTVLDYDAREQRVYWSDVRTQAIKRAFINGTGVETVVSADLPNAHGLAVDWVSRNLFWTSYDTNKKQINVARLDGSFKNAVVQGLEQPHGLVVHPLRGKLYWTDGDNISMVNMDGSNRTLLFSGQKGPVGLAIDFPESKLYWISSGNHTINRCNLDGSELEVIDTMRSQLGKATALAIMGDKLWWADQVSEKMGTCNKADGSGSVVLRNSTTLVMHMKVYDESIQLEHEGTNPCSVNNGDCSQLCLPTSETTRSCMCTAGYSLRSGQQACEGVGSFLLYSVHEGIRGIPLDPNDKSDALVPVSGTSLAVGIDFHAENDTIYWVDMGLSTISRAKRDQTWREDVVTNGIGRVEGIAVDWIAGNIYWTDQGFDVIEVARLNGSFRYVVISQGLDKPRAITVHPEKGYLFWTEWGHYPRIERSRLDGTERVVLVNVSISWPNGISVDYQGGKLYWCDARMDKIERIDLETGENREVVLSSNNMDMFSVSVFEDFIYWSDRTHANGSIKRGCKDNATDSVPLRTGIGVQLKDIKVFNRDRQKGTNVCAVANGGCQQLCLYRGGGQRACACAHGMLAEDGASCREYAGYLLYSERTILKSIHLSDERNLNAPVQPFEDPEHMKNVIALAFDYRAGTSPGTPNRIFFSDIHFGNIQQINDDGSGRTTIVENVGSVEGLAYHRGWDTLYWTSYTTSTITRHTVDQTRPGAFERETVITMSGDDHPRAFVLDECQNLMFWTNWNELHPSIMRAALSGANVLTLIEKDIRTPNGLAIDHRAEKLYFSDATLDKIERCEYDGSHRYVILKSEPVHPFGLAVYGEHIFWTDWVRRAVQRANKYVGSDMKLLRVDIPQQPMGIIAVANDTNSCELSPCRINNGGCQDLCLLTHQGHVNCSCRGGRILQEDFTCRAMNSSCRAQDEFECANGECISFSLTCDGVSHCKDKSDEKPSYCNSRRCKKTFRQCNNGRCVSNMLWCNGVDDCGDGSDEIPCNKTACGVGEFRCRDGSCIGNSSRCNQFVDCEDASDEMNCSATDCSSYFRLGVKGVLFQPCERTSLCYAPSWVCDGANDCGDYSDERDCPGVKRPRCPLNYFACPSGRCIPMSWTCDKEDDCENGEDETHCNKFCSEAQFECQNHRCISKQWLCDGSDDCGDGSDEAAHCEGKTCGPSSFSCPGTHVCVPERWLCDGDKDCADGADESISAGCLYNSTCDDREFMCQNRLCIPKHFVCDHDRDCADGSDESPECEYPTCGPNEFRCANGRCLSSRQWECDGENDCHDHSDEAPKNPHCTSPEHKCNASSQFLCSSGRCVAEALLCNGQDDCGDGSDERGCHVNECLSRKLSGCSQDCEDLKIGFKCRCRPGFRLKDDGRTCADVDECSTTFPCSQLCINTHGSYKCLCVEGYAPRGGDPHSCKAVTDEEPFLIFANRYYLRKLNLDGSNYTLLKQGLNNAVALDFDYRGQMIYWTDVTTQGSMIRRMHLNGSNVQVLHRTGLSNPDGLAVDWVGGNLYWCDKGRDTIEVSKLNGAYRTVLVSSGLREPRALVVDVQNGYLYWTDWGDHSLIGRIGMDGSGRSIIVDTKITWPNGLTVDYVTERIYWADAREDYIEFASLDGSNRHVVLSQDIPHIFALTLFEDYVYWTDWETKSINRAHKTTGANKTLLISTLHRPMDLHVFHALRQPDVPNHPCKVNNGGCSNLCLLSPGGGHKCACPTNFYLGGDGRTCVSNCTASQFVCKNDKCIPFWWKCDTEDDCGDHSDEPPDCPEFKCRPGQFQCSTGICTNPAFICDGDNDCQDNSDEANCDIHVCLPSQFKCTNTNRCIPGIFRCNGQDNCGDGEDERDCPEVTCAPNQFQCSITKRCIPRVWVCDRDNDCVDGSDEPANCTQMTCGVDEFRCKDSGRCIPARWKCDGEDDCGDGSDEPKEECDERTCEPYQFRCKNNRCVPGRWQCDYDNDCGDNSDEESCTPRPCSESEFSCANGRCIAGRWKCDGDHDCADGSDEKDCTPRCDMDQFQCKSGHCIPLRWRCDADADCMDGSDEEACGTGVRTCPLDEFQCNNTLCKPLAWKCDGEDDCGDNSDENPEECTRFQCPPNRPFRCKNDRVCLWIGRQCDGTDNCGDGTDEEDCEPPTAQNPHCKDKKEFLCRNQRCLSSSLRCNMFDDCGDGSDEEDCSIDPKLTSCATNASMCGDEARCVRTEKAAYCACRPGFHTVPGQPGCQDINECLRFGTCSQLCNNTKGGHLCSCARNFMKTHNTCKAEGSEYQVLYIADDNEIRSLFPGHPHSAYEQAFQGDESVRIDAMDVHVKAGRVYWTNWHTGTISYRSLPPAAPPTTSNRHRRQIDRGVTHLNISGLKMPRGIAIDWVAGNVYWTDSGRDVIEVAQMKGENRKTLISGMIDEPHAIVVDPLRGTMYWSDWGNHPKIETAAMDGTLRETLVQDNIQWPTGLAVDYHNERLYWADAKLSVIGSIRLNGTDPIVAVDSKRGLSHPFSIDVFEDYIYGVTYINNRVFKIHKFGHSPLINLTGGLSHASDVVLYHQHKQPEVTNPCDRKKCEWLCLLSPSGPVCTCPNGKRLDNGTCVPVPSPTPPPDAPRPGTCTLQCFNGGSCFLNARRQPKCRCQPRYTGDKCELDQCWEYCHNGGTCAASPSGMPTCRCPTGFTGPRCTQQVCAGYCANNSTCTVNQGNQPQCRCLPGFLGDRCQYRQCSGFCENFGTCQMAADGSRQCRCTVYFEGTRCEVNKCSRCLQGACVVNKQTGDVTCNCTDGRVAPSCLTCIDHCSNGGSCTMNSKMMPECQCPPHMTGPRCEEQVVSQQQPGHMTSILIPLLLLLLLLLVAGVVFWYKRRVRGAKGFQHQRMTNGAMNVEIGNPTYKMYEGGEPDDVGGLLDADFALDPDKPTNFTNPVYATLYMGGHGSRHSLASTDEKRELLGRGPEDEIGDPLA

Question: For “Aβ1-40: beta-amyloid 1-40 peptide (gift from Eli Lilly) added to the inner chamber at 1 μM”, which “change of TEER between treated and untreated samples” value [1] is on record?
Answer: little change

Question: For “LRP1 siRNA: siRNA from Sigma-Aldrich; sense 5′ -CCUAUCUUUGAGAUCCGAA-3′, antisense 5′ -UUCGGAUCUCAAAGAUAGG-3′ (chemistry not given here)”, which “reduction of LRP1 at protein expression levels as compared to the scrambled siRNA controls” value [2] is on record?
Answer: 84.7%

Question: What about the “IVIG-induced Aβ efflux from inner chambers after 1 hr Aβ added” value [3, 5] of the same substance?
Answer: 1.1 ± 0.28 ng/mL

Question: And the “IVIG-induced Aβ efflux from inner chambers after 3 hrs Aβ added” value [3, 5]?
Answer: 2.86 ± 0.86 ng/mL

Question: And the “Aβ concentration in outer chamber 1 hr after Aβ added” value ([3]; LRP1 knockdown by siRNA, without IVIG, 1 μM Aβ, scrambled siRNA control 0.28±0.08, p<0.05, n=3)?
Answer: 0.02 ± 0.004 ng/mL

Question: What about the “Aβ concentration in outer chamber 3 hrs after Aβ added” value ([3]; LRP1 knockdown by siRNA, without IVIG, 1 μM Aβ, scrambled siRNA control 4.0±0.31, p<0.05, n=3) of the same substance?
Answer: 1.17 ± 0.38 ng/mL

Question: Which “concentration at which RAP could bind Aβ” value [4] does the source give for “RAP: recombinant receptor-associated protein (EMD Millipore), a functional inhibitor of LRP1” here?
Answer: above 500 nM

Question: What about the “IVIG-induced Aβ efflux from inner chambers at 1 hr” value ([3]; 100 nM RAP plus 10mg/ml IVIG, IVIG alone 2.52±0.22, p<0.001, n=5) of the same substance?
Answer: 1.77 ± 0.1 ng/mL

Question: What about the “IVIG-induced Aβ efflux from inner chambers at 3 hrs” value ([3]; 100 nM RAP plus 10mg/ml IVIG, IVIG alone 7.61±0.91, p<0.001, n=5) of the same substance?
Answer: 5.41 ± 0.92 ng/mL
